Among the data in PubChem BioAssay AID1259407 (Chemical Carcinogenesis Research Information System (CCRIS), 2018) are mutagenic call values, retold here.

Calls of active or inactive are those of the source. The rule behind the calls is not given here.

This series concerns CCRIS mutagenicity, Ames/micronucleus/aberration tests. In words: CCRIS mutagenicity studies.
[1] abbreviates: Test System: AMES SALMONELLA TYPHIMURIUM, Strain/Indicator: TA98, Metabolic Activation: NONE, Method: STANDARD PLATE.
Setting [2] is: Test System: AMES SALMONELLA TYPHIMURIUM, Strain/Indicator: TA100, Metabolic Activation: NONE, Method: STANDARD PLATE.
[3] abbreviates: Test System: AMES SALMONELLA TYPHIMURIUM, Strain/Indicator: TA1535, Metabolic Activation: NONE, Method: STANDARD PLATE.
Setting [4] is: Test System: AMES SALMONELLA TYPHIMURIUM, Strain/Indicator: TA1537, Metabolic Activation: NONE, Method: STANDARD PLATE.

Turning to `CCCCCC(=O)N=c1sn(C(=O)CCCCC)c2ccc([N+](=O)[O-])cc12`, the mutagenic call (Test System: AMES SALMONELLA TYPHIMURIUM, Strain/Indicator: TA100, Metabolic Activation: S-9, Method: STANDARD PLATE) was “active; positive”.
For `COc1cc(Nc2c3ccccc3nc3ccccc23)ccc1NS(C)(=O)=O`, the mutagenic call (Test System: MOUSE LYMPHOMA, Strain/Indicator: L5178Y (TK+/TK-), Metabolic Activation: NONE, Method: SUSPENSION/PLATE) is “active; positive”.
Regarding `C=CC1(C)OC(=O)N(c2cc(Cl)cc(Cl)c2)C1=O` (stereo unspecified), where the note is “End Point: IN VITRO MICRONUCLEUS, Test System: HUMAN HEPATOMA CELLS HEPG2, Metabolic Activation: NONE”, the mutagenic call was “inactive; negative; authors report a slight increase but not statistically significant”.
For the compound `CN(C)CCCNc1c2ccccc2nc2ccc([N+](=O)[O-])cc12`, the mutagenic call was “active; positive” (Test System: AMES SALMONELLA TYPHIMURIUM, Strain/Indicator: TA98(1,8-DNP6), Metabolic Activation: NONE, Method: STANDARD PLATE); “active; positive” (Test System: AMES SALMONELLA TYPHIMURIUM, Strain/Indicator: TA98(1,8-DNP6), Metabolic Activation: RAT, LIVER, S-9, Method: STANDARD PLATE); “active; positive” (Test System: AMES SALMONELLA TYPHIMURIUM, Strain/Indicator: TA98(NR), Metabolic Activation: NONE, Method: STANDARD PLATE); “active; positive” (Test System: AMES SALMONELLA TYPHIMURIUM, Strain/Indicator: TA98(NR), Metabolic Activation: RAT, LIVER, S-9, Method: STANDARD PLATE); “active; positive” under setting [1]; “active; positive” (Test System: AMES SALMONELLA TYPHIMURIUM, Strain/Indicator: TA98, Metabolic Activation: RAT, LIVER, S-9, Method: STANDARD PLATE). Also, the mutagenic call by setting is: under setting [2], “active; positive”; under setting [3], “active; positive”; under setting [4], “active; positive”; (Test System: AMES SALMONELLA TYPHIMURIUM, Strain/Indicator: TA1537 PKM101, Metabolic Activation: NONE, Method: STANDARD PLATE) “active; positive”; (Test System: AMES SALMONELLA TYPHIMURIUM, Strain/Indicator: TA1538, Metabolic Activation: NONE, Method: STANDARD PLATE) “active; positive”; (Test System: CHINESE HAMSTER V-79, Strain/Indicator: V-79/6-THIOGUANINE, Metabolic Activation: NONE, Method: STANDARD PLATE) “inactive; negative”. Also, the mutagenic call reads like this: (Test System: CHINESE HAMSTER V-79, Strain/Indicator: V-79/OUABAIN, Metabolic Activation: NONE, Method: STANDARD PLATE) “inactive; negative”; (Test System: Escherichia coli, Strain/Indicator: CC107 (G6 to G7 frameshifts), Metabolic Activation: None, Method: Modified preincubation) “active; positive”; (Test System: Escherichia coli, Strain/Indicator: CC108 (G6 to G5 frameshifts), Metabolic Activation: None, Method: Modified preincubation) “active; positive”; (Test System: Escherichia coli, Strain/Indicator: CC109 (CG5 to CG4 frameshifts), Metabolic Activation: None, Method: Modified preincubation) “active; positive”; (Test System: Escherichia coli, Strain/Indicator: CC111 (A7 to A6 frameshifts), Metabolic Activation: None, Method: Modified preincubation) “active; positive”.
With `c1ccc(Nc2ccccc2)cc1`, the mutagenic call is “active; positive (structural changes). toxicity at 0.14 mg/ml” (End Point: In vitro chromosomal aberrations, Test System: Chinese hamster lung (CHL/IU) cells, Metabolic Activation: Rat, Liver, S9, Phenobarbital and 5,6-benzoflavone); “inactive; negative” (Test System: AMES SALMONELLA TYPHIMURIUM, Strain/Indicator: TA97, Metabolic Activation: HAMSTER, LIVER, S-9, AROCLOR 1254 (10%), Method: PREINCUBATION); “inactive; negative” (Test System: AMES SALMONELLA TYPHIMURIUM, Strain/Indicator: TA97, Metabolic Activation: HAMSTER, LIVER, S-9, AROCLOR 1254 (30%), Method: PREINCUBATION); “inactive; negative” (Test System: AMES SALMONELLA TYPHIMURIUM, Strain/Indicator: TA97, Metabolic Activation: NONE, Method: PREINCUBATION); “inactive; negative” (Test System: AMES SALMONELLA TYPHIMURIUM, Strain/Indicator: TA97, Metabolic Activation: RAT, LIVER, S-9, AROCLOR 1254 (10%), Method: PREINCUBATION); “inactive; negative” (Test System: AMES SALMONELLA TYPHIMURIUM, Strain/Indicator: TA97, Metabolic Activation: RAT, LIVER, S-9, AROCLOR 1254 (30%), Method: PREINCUBATION). The mutagenic call runs as follows: (Test System: AMES SALMONELLA TYPHIMURIUM, Strain/Indicator: TA98, Metabolic Activation: HAMSTER, LIVER, S-9, AROCLOR 1254 (10%), Method: PREINCUBATION) “inactive; negative”; (Test System: AMES SALMONELLA TYPHIMURIUM, Strain/Indicator: TA98, Metabolic Activation: HAMSTER, LIVER, S-9, AROCLOR 1254 (30%), Method: PREINCUBATION) “inactive; negative”; (Test System: AMES SALMONELLA TYPHIMURIUM, Strain/Indicator: TA98, Metabolic Activation: NONE, Method: PREINCUBATION) “inactive; negative”; (Test System: AMES SALMONELLA TYPHIMURIUM, Strain/Indicator: TA98, Metabolic Activation: RAT, LIVER, S-9, AROCLOR 1254 (10%), Method: PREINCUBATION) “inactive; negative”; (Test System: AMES SALMONELLA TYPHIMURIUM, Strain/Indicator: TA98, Metabolic Activation: RAT, LIVER, S-9, AROCLOR 1254 (30%), Method: PREINCUBATION) “inactive; negative”; (Test System: AMES SALMONELLA TYPHIMURIUM, Strain/Indicator: TA100, Metabolic Activation: HAMSTER, LIVER, S-9, AROCLOR 1254 (10%), Method: PREINCUBATION) “inactive; negative”. Further, the mutagenic call is “inactive; negative” (Test System: AMES SALMONELLA TYPHIMURIUM, Strain/Indicator: TA100, Metabolic Activation: HAMSTER, LIVER, S-9, AROCLOR 1254 (30%), Method: PREINCUBATION); “inactive; negative” (Test System: AMES SALMONELLA TYPHIMURIUM, Strain/Indicator: TA100, Metabolic Activation: NONE, Method: PREINCUBATION); “inactive; negative” (Test System: AMES SALMONELLA TYPHIMURIUM, Strain/Indicator: TA100, Metabolic Activation: RAT, LIVER, S-9, AROCLOR 1254 (10%), Method: PREINCUBATION); “inactive; negative” (Test System: AMES SALMONELLA TYPHIMURIUM, Strain/Indicator: TA100, Metabolic Activation: RAT, LIVER, S-9, AROCLOR 1254 (30%), Method: PREINCUBATION); “inactive; negative” (Test System: AMES SALMONELLA TYPHIMURIUM, Strain/Indicator: TA1535, Metabolic Activation: HAMSTER, LIVER, S-9, AROCLOR 1254 (10%), Method: PREINCUBATION); “inactive; negative” (Test System: AMES SALMONELLA TYPHIMURIUM, Strain/Indicator: TA1535, Metabolic Activation: HAMSTER, LIVER, S-9, AROCLOR 1254 (30%), Method: PREINCUBATION). Besides, the mutagenic call is “inactive; negative” (Test System: AMES SALMONELLA TYPHIMURIUM, Strain/Indicator: TA1535, Metabolic Activation: NONE, Method: PREINCUBATION); “inactive; negative” (Test System: AMES SALMONELLA TYPHIMURIUM, Strain/Indicator: TA1535, Metabolic Activation: RAT, LIVER, S-9, AROCLOR 1254 (10%), Method: PREINCUBATION); “inactive; negative” (Test System: AMES SALMONELLA TYPHIMURIUM, Strain/Indicator: TA1535, Metabolic Activation: RAT, LIVER, S-9, AROCLOR 1254 (30%), Method: PREINCUBATION).
For the compound `CN1C[C@@H](O)c2cc3c(c4c2[C@H]1Cc1ccccc1-4)OCO3`, the mutagenic call runs as follows: (Test System: AMES SALMONELLA TYPHIMURIUM, Strain/Indicator: TA98, Metabolic Activation: RAT, LIVER, S-9, PHENOBARBITAL AND BETA-NAPHTHOFLAVONE, Method: PREINCUBATION) “active; positive”; (Test System: AMES SALMONELLA TYPHIMURIUM, Strain/Indicator: TA100, Metabolic Activation: RAT, LIVER, S-9, PHENOBARBITAL AND BETA-NAPHTHOFLAVONE, Method: PREINCUBATION) “active; positive”.
Regarding `O=C(O)c1cc(I)cc2cccnc12`, the mutagenic call is, setting by setting: under setting [1], “inactive; negative”; (Test System: AMES SALMONELLA TYPHIMURIUM, Strain/Indicator: TA98, Metabolic Activation: RAT, LIVER, S-9, AROCLOR 1254, Method: STANDARD PLATE) “inactive; negative”; under setting [2], “inactive; negative”; (Test System: AMES SALMONELLA TYPHIMURIUM, Strain/Indicator: TA100, Metabolic Activation: RAT, LIVER, S-9, AROCLOR 1254, Method: STANDARD PLATE) “inactive; negative”; under setting [3], “inactive; negative”; (Test System: AMES SALMONELLA TYPHIMURIUM, Strain/Indicator: TA1535, Metabolic Activation: RAT, LIVER, S-9, AROCLOR 1254, Method: STANDARD PLATE) “inactive; negative”. The mutagenic call reads like this: under setting [4], “inactive; negative”; (Test System: AMES SALMONELLA TYPHIMURIUM, Strain/Indicator: TA1537, Metabolic Activation: RAT, LIVER, S-9, AROCLOR 1254, Method: STANDARD PLATE) “inactive; negative”.
